Assay [1] deals with Estrogen receptor (Rattus norvegicus) (UniProt P06211+Q62986). Kind of assay: Relative Binding Affinity (RBA) for estrogen receptor in ovariectomized rats. The format is protein assay.
For assay [2], the species on record is Rattus norvegicus. Kind of assay: Antifertility activity at maximal effective dose in adult female rat in an antiestrogen assay. The format is functional.
The species entered for assay [3] is Rattus norvegicus. The experiment in a line: Antifertility activity at maximal effective dose in adult female rat in an antiestrogen assay; Inactive. The assay is classed as functional, organism-based.
In assay [4] the test system is Rattus norvegicus. The experiment in a line: Antifertility activity at maximal effective dose in adult female rat in an antiestrogen assay; Inactive at 5 mg/kg dose. The assay is classed as functional, organism-based. On the set-up: dose 5 mg/kg.
In assay [5] the test system is Rattus norvegicus. The experiment in a line: Antifertility activity at maximal effective dose in adult female rat in an antiestrogen assay; Inactive at 10 mg/kg dose. The format is functional, organism-based. Also on record: dose 10 mg/kg.
In assay [6] the test system is Rattus norvegicus. Kind of assay: Antifertility activity at maximal effective dose in adult female rat in an antiestrogen assay at 10 mg/kg. The format is functional.

The source made the active and inactive calls. The rule behind the calls is not given here.

In assay [1], `COc1ccc2c(c1)OC(C)(C)[C@@H](c1ccccc1)[C@@H]2c1ccc(OCCN2CCCCC2)cc1` registered a relative binding affinity (RBA) of 3.77. Also, the MED100 in the assay listed under Rattus norvegicus [2] is 0.1 mg/kg.
`CC1(C)Oc2cc(O)ccc2[C@@H](c2ccc(OCCN3CCCC3)cc2)[C@H]1c1ccccc1`: the MED100 entry in the assay listed under Rattus norvegicus [3] is “inactive”.
The compound `CC1(C)Oc2cc(O)ccc2C(c2ccc(OCCN3CCCCC3)cc2)=C1c1ccccc1` gave a relative binding affinity (RBA) in assay [1] of 2.11. Further, the MED100 result with Rattus norvegicus [4] is “inactive”.
Turning to `CC1(C)Oc2cc(O)ccc2C(c2ccc(OCCN3CCCC3)cc2)=C1c1ccccc1`, in assay [1], the relative binding affinity (RBA) was 9.2. In the assay listed under Rattus norvegicus [2], this compound came in with an MED100 of 15 mg/kg.
On the same counts, the results for `COc1ccc2c(c1)OCC(c1ccccc1)C2c1ccc(OCCN2CCCCC2)cc1` (stereo not given) are 1.45 and 0.25 mg/kg.
Turning to `COc1ccc2c(c1)OC(C)(C)[C@H](c1ccccc1)[C@@H]2c1ccc(OCCN2CCCC2)cc1`, the relative binding affinity (RBA) in assay [1] stood at 0.16. The MED100 entry with Rattus norvegicus [5] was “inactive”.
In turn, `COc1ccc2c(c1)OC(C)(C)[C@@H](c1ccccc1)[C@@H]2c1ccc(OCCN2CCCC2)cc1` [LEVORMELOXIFENE] came in with a relative binding affinity (RBA) in assay [1] of 5.24. Also, the MED100 in the assay filed under Rattus norvegicus [2] was 0.25 mg/kg.
On the same counts, the results for `CC1(C)Oc2cc(O)ccc2[C@@H](c2ccc(OCCN3CCCC3)cc2)[C@@H]1c1ccccc1` are 112 and 0.25 mg/kg.
On the same counts, the results for `COc1ccc2c(c1)OC(C)(C)C(c1ccccc1)=C2c1ccc(OCCN2CCCCC2)cc1` are 0.53 and 10 mg/kg.
On the same counts, the results for `COc1ccc2c(c1)OCC(c1ccccc1)C2c1ccc(OCCN2CCCC2)cc1` (stereo not given) are 7.35 and 0.1 mg/kg.
In assay [1], `COc1ccc2c(c1)OC(C)(C)C(c1ccccc1)=C2c1ccc(OCCN2CCCC2)cc1` had a relative binding affinity (RBA) of 0.86. In the assay listed under Rattus norvegicus [2], this compound showed an MED100 of 5 mg/kg.
For the compound `CC1(C)Oc2cc(O)ccc2[C@@H](c2ccc(OCCN3CCCCC3)cc2)[C@@H]1c1ccccc1`, in assay [1], the relative binding affinity (RBA) worked out at 50.1. This compound gave an MED100 in the assay filed under Rattus norvegicus [2] of 0.2 mg/kg.
With `COc1ccc2c(c1)OC(C)(C)[C@H](c1ccccc1)[C@@H]2c1ccc(OCCN2CCCCC2)cc1`, the Activity in the assay on Rattus norvegicus [6] turned out to be 90%.
`CC1(C)Oc2cc(O)ccc2[C@@H](c2ccc(OCCN3CCCCC3)cc2)[C@H]1c1ccccc1`: the MED100 result in the assay filed under Rattus norvegicus [3] is “inactive”.

For the origin of these results see ChEMBL document CHEMBL1130303, “Evaluation of piperidinoethoxy moiety as an antiestrogenic substituent in non-steroidal anti-estrogens: Fertility regulation” (1997).
